Assays:
adiponectin [1] = assay: 24-week randomized, double-blind, placebo-controlled study: serum adiponectin levels in subjects with type 2 diabetes; type: in vivo, human; conditions: for Mean Change in adiponectin from baseline to Week 24: LOCF; for Mean Change in adiponectin from baseline to Week 24 / Mean Adiponectin, Week 24 / Mean Adiponectin, Week 0: type 2 diabetes, serum; for Mean Adiponectin, Week 0: baseline (Week 0)
Method: A randomized, double-blind, placebo-controlled, 24-week study was conducted in which adiponectin levels were measured. […] 367 subjects with type 2 diabetes (TD2)—a disease in which patient adiponectin levels are reduced—were randomly assigned to receive either 0.5, 1, 2 or 3 milligrams (“mg”) of INT131 besylate, 45 mg of pioglitazone or placebo daily for 24 weeks. To measure adiponectin levels blood was drawn at Weeks 0, 2, 6, 12 and 24.
At baseline (Week 0) mean adiponectin levels were 1.94 micrograms per milliliter (“μg/mL”). The mean adiponectin levels at baseline and Week 24, and the mean change in adiponectin levels from baseline (Week 0) to Week 24 are disclosed in Table 1, below. The standard deviation for samples tested in each group is listed in (parenthesis). Mean baseline adiponectin values were similar for the treatment groups.

adiponectin [2] = assay: 14-day study of serum adiponectin levels in healthy subjects; type: in vivo, human
Method: A study was conducted to determine the effect of INT131 on serum adiponectin levels. Thirty healthy subjects were randomly selected to receive either placebo, 0.1 mg INT131, 1 mg INT131 or 4 mg INT131 daily for 14 days. To measure adiponectin levels blood was drawn at Days 1, 4, 8 and 14.

[3] = subjects taking INT131 vs pioglitazone; DePaoli et al. Diabetes Care 2014; cited from earlier work
HbA1c [4] = assay: 24-week randomized, double-blind, placebo-controlled study: HbA1c levels in subjects with type 2 diabetes; type: in vivo, human; conditions: 24 weeks
[5] = test system: subjects with Relapsing Remitting Multiple Sclerosis (RRMS); assay: 6-month placebo-controlled MRI study in Relapsing Remitting Multiple Sclerosis (CE lesions, T2 lesions, brain volume); type: in vivo, human; conditions: for cumulative CE lesions / reduction of CE lesion burden vs. placebo / cumulative CE lesions, LSMean: over 6 months; for cumulative CE lesions: complete case analysis, placebo 7.8; for cumulative CE lesions, LSMean: placebo LSMean 6.49
Method: 227 treatment-naive adult subjects (mean age 31 [range 18-50]; 65% female) were randomized into one of three arms: oral CHS-131 at 3 mg (n=76); oral CHS-131 at 1 mg (n=76); placebo (n=75), at 21 sites in Russia. 97% completed Part 1. Inclusion criteria: Relapsing Remitting Multiple Sclerosis (RRMS) for ≤3 years, ≥1 gadolinium-positive lesion within 1-year of enrollment, and an EDSS≤6 at screening. The patients underwent monthly MRI examinations with contrast to identify new inflammatory lesions. All […] were read blinded at the Buffalo Neuroimaging Center (Buffalo, N.Y.). In addition to CE lesions the images were scored for cumulative new/enlarged T2 lesions, and serial cortical and whole brain volumetric analysis.

[6] = in words; cited from earlier work
HbA1c [7] = conditions: DePaoli et al. Diabetes Care 2014; cited from earlier work

Which “Mean Change in adiponectin from baseline to Week 24” value (“Mean Change in adiponectin” for short) (adiponectin [1]; 45 mg daily) does the source give for `CCc1ccc(CCOc2ccc(CC3SC(=O)NC3=O)cc2)nc1` (stereo not shown) [Pioglitazone, pioglitazone, reference compound] here?
Its value is 2.96 µg/mL.

And the “Mean Adiponectin, Week 24” value (adiponectin [1]; 45 mg daily)?
The value was 5.28 µg/mL.

What about the “Mean Adiponectin, Week 0” value (adiponectin [1]; 45 mg pioglitazone daily group) of the same compound?
Its value is 2.32 µg/mL.

With `O=S(=O)(Nc1cc(Cl)c(Oc2cnc3ccccc3c2)c(Cl)c1)c1ccc(Cl)cc1Cl` [INT131] as the compound, how does the “change in serum adiponectin levels Day 1 to Day 14 and over placebo” value (adiponectin [2]; 0.1 mg daily for 14 days) read?
Its value is “no significant change”.

What about the “change in serum adiponectin levels over placebo and from Day 1 to Day 14” value (adiponectin [2]; 1 mg or 4 mg daily for 14 days) of the same compound?
Its value is “significant change”.

What about the “side effects versus pioglitazone” value [3] of the same compound?
The value was “less edema, weight gain, and hemodilution”.

And the “reduction of HbA1c levels as compared to placebo” value (HbA1c [4]; 1, 2, and 3 mg doses daily)?
The value was “statistically significant reduction”.

And the “reduction of HbA1c levels compared with 45 mg of pioglitazone” value (HbA1c [4]; 2 and 3 mg doses daily)?
Its value is “at least as well as 45 mg of pioglitazone”.

And the “cumulative CE lesions” value ([5]; 1 mg oral)?
Its value is 7.6.

What about the “reduction of CE lesion burden vs. placebo” value ([5]; 1 mg oral, p=ns, RRMS) of the same compound?
Its value is 21%.

And the “cumulative CE lesions, LSMean” value ([5]; 1 mg oral)?
Its value is 5.15.

What about the “reduction of new/enlarged T2 lesions compared to placebo” value ([5]; 1 mg, p=ns, RRMS) of the same compound?
Its value is 14%.

What about the “cumulative CE lesions” value ([5]; 3 mg daily oral) of the same compound?
The value was 4.2 lesions.

And the “reduction of CE lesion burden vs. placebo” value ([5]; 3 mg daily oral, p=0.003, RRMS)?
The value was 52%.

And the “cumulative CE lesions, LSMean” value ([5]; 3 mg daily oral)?
Its value is 3.10.

And the “less cortical volume loss compared to placebo” value ([5]; 3 mg daily, 6 months, RRMS)?
Its value is 34.2%.

And the “less whole brain volume loss compared to placebo” value ([5]; 3 mg daily, 6 months, RRMS)?
Its value is 50%.

And the “reduction of new/enlarged T2 lesions compared to placebo” value ([5]; 3 mg, p=0.0767, RRMS)?
The value was 30%.

What about the “crossing of the blood brain barrier” value [6] of the same compound?
The value was “readily crosses the blood brain barrier”.

What about the “Mean Change in adiponectin” value (adiponectin [1]; 0.5 mg daily) of the same compound?
The value was 0.56 µg/mL.

And the “Mean Change in adiponectin” value (adiponectin [1]; 1 mg daily)?
Its value is 1.28 µg/mL.

What about the “adiponectin treatment comparison with placebo” value (adiponectin [1]; 1 mg, 2 mg, and 3 mg doses, p≤0.0109) of the same compound?
Its value is “statistically significant”.

And the “Mean Change in adiponectin” value (adiponectin [1]; 2 mg daily)?
The value was 3.27 µg/mL.

And the “Mean Change in adiponectin” value (adiponectin [1]; 3 mg daily)?
Its value is 3.83 µg/mL.

What about the “upregulation of serum adiponectin levels compared with pioglitazone” value (adiponectin [1]; 2 or 3 mg INT131 vs at least 22 times the amount of pioglitazone) of the same compound?
The value was “greater upregulation”.

What about the “Mean Adiponectin, Week 24” value (adiponectin [1]; 0.5 mg daily) of the same compound?
The value was 2.28 µg/mL.

And the “Mean Adiponectin, Week 24” value (adiponectin [1]; 1 mg daily)?
The value was 3.15 µg/mL.

And the “Mean Adiponectin, Week 24” value (adiponectin [1]; 2 mg daily)?
The value was 5.14 µg/mL.

And the “Mean Adiponectin, Week 24” value (adiponectin [1]; 3 mg daily)?
The value was 5.83 µg/mL.

And the “Mean Adiponectin, Week 0” value (adiponectin [1]; 0.5 mg INT131 besylate daily group)?
The value was 1.73 µg/mL.

And the “Mean Adiponectin, Week 0” value (adiponectin [1]; 1 mg INT131 besylate daily group)?
Its value is 1.87 µg/mL.

And the “Mean Adiponectin, Week 0” value (adiponectin [1]; 2 mg INT131 besylate daily group)?
Its value is 1.87 µg/mL.

What about the “Mean Adiponectin, Week 0” value (adiponectin [1]; 3 mg INT131 besylate daily group) of the same compound?
The value was 2.00 µg/mL.

What about the “efficacy in reducing HbA1c levels versus 45 mg of pioglitazone” value (HbA1c [7]) of the same compound?
Its value is “equally efficacious”.
